Literature values, collected in patent US20260048144A1, “SECRETED RNA THERAPEUTICS FOR NUCLEAR DELIVERY” (H. Lee Moffitt Cancer Center and Research Institute, Inc., priority 2022, published 2026).

How the values were obtained:
[1] = tested in humans; Di Stasi et al. 2011
[2] = infused in thousands of lymphoma and rheumatoid arthritis patients

Row | Compound | safety / adverse effects in humans [1] | side effect profile [2]
1 | CC[C@H](C(=O)N1CCCC[C@H]1C(=O)O[C@H](CCc1ccc(OC)c(OC)c1)c1cccc(OCC(=O)NCCNC(=O)COc2cccc([C@@H](CCc3ccc(OC)c(OC)c3)OC(=O)[C@@H]3CCCCN3C(=O)[C@@H](CC)c3cc(OC)c(OC)c(OC)c3)c2)c1)c1cc(OC)c(OC)c(OC)c1 [AP1903] | deemed safe without adverse effects | 
2 | Rituximab |  | favorable side effect profile
